Laboratory results: ChEMBL document CHEMBL1142932 (Bioorg Med Chem, 2007)

Legend:
[1] = molecular target: T1, Adenosine receptor A3 (Homo sapiens) (UniProt P0DMS8); test: Displacement of [3H]NECA from human recombinant adenosine A3 receptor expressed in HEK293T cells at 100 uM; format: cell-based; settings: HEK-293T
T1 sequence (whole entry): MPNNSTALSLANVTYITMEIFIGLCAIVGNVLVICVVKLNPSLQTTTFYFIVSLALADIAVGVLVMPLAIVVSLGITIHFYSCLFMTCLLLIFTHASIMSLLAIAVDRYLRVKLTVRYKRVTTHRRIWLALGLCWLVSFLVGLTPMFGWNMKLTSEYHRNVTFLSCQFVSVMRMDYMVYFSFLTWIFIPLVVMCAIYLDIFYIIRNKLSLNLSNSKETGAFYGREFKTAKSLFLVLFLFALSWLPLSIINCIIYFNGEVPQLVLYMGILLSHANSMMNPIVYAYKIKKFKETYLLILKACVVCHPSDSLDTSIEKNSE

Adenosine receptor A2a [2] = molecular target: T2, Adenosine receptor A2a (Homo sapiens, UniProt P29274); test: Displacement of [3H]CGS21680 from human recombinant adenosine A2A receptor expressed in HEK293T cells at 100 uM; format: cell-based; settings: HEK-293T
T2 sequence (P29274 whole entry): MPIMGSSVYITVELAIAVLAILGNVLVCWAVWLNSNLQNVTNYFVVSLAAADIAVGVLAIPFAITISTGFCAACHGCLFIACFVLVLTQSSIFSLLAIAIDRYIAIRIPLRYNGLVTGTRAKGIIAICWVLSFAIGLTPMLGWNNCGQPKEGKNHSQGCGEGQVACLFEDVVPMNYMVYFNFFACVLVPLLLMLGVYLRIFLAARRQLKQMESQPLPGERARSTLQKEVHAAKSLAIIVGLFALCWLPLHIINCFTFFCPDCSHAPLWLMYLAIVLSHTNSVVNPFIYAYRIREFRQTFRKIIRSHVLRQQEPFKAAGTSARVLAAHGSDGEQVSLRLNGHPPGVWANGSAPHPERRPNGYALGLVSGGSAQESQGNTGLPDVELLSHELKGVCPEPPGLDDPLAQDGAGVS

[3] = molecular target: T3, Adenosine receptor A1 (Homo sapiens) (UniProt P30542); test: Displacement of [3H]DPCPX from human recombinant adenosine A1 receptor expressed in HEK293T cells at 100 uM; format: cell-based; settings: HEK-293T
T3 sequence (whole entry): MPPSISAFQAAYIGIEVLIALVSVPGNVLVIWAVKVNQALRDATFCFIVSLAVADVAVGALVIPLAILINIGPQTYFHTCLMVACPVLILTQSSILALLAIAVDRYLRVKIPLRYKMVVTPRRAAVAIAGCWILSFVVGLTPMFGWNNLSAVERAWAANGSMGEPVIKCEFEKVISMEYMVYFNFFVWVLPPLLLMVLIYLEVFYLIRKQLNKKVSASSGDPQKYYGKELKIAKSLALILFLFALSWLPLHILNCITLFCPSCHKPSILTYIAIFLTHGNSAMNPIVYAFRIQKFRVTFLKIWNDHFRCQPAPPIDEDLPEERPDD

Adenosine receptor A3 = molecular target: T4, Adenosine receptor A3 (Homo sapiens, UniProt P0DMS8); test: Displacement of [3H]NECA from human recombinant adenosine A3 receptor expressed in HEK293T cells; format: cell-based, HEK-293T
T4 sequence (P0DMS8 whole entry): T1 sequence (whole entry)

Adenosine receptor A1 = molecular target: T5, Adenosine receptor A1 (Homo sapiens, UniProt P30542); test: Displacement of [3H]DPCPX from human recombinant adenosine A1 receptor expressed in HEK293T cells; format: cell-based, HEK-293T
T5 sequence (P30542 whole entry): T3 sequence (whole entry)

Adenosine receptor A2a [4] = molecular target: T2, Adenosine receptor A2a; test: biochemical

Row | SMILES | Activity [1] [%] | Activity (Adenosine receptor A2a [2]) [%] | Activity [3] [%] | Ki (Adenosine receptor A3) [µM] | Ki (Adenosine receptor A1) [µM] | Ki (Adenosine receptor A2a [4]) [µM]
1 | CN1CC(Nc2cccnc2)C(=O)N(C)C1=O (stereo unspecified) | 25 | 38 | 22 | – | – | –
2 | CN1C(=O)C(N)C(c2ccncc2Cl)N(C)C1=O (stereo unspecified) | 3 | 15 | 8 | – | – | –
3 | Oc1c(Br)cc2[nH]c3cnccc3c2c1Br | – | – | – | 2.05 | 7.37 | 4.92
4 | CN1CC(N(C)c2cccnc2)C(=O)N(C)C1=O (stereo unspecified) | 0.2 | 29 | 9 | – | – | –

More lines, main results first:

Row | Activity [1] [%] | Activity (Adenosine receptor A2a [2]) [%] | Activity [3] [%] | Ki (Adenosine receptor A3) [µM] | Ki (Adenosine receptor A1) [µM] | SMILES | Ki (Adenosine receptor A2a [4]) [µM]
5 | – | – | – | 0.332 | 13.5 | Cn1c(=O)c2c(c3ncccc3n2C)n(C)c1=O | –
6 | 9 | – | – | – | – | Cn1c(=O)c2c(ncn2C)n(C)c1=O | –
7 | – | – | – | 3.19 | – | Cn1c(=O)c2c(c3ccncc3n2C)n(C)c1=O | 4.19
8 | – | – | – | 0.526 | 11.7 | Cn1c(=O)c2[nH]c3cnccc3c2n(C)c1=O | –
9 | – | – | – | 0.0139 | 0.379 | Cn1c(=O)c2[nH]c3cccnc3c2n(C)c1=O | –
